Consider 4 compounds from patent US9018248B2, “Fatty acid derivatives of catechins and methods of their use” (Genesis Group Inc., priority 2010, dated 2015).

Each structure is given as a SMILES string.

The nature of experiment [1]: Metal chelation capacity (ferrozine). As to conditions: test compounds 1 mM ethanolic solution, FeCl2, ferrozine. How it is done: An ORAC (Oxygen Radical Absorbance Capacity) assay was carried out using a Fluostar Optima plate reader (BMG Labtech, Durham, N.C.) equipped with an incubator and two injector pumps. A modified method for lipophilic antioxidants was followed, in which randomly methylated cyclodextrin (RMCD) was used as water solubility enhancer, as described by Huang et al, J. Agric. Food Chem., 2002, 50, 1815-1821. Trolox standards (6.25-50 μM) and samples (0.25 μM) were dissolved in acetone/water (1:1, v/v) containing 7% RMCD. Fluorescein and […] [2,2′-azobis(2-aminopropane)dihydrochloride] were used as the probe and radical generator, respectively. Twenty microliters of trolox standard or test compound solutions (7% RMCD used as a control) were added into each well of a 96-well black microplate, followed by addition of fluorescein. The plate was incubated at 37° C. for 15 min and then AAPH in buffer was injected into the wells. The conditions used were as follows: 0.3 s position delay, 8 s orbital shaking before each cycle with 4 mm width, 210 s cycle time, and 25 cycles. Fluorescence was measured at an excitation wavelength of 485 nm and emission of 520 nm. A standard curve was plotted and ORAC values for test compounds were obtained as mol of trolox equivalents (TE) per mol of test compound. (3b) Reducing Power The reducing power of EGCG and its derivatives (compounds 1a-1c) was determined according to Oyaizu (1986). One milliliter of test compounds (1 mM in 95% ethanol) was mixed with 2.5 ml of phosphate buffer solution (PBS, 0.2 M, pH 6.6) and 2.5 ml of a 1% solution of potassium ferricyanide, K3Fe(CN)6. The mixture was incubated at 50° C. for 20 min. […] The content was mixed well and the absorbance was recorded at 700 nm. Higher absorbance of the reaction mixture indicates greater reducing power. […] (3c) Metal Chelation The metal chelation capacity was measured following a procedure by Decker E. A. et al., J. Agric. […] The absorbance was measured afterwards at 562 nm. A blank without ferrozine was run for each compound, since the antioxidant-Fe^2+ complex gives a colour that might interfere with the absorbance reading. Metal chelation capacity was calculated using the following equation: % chelation=[1−(Abs.sample−Abs.blank)/Abs.control]×100 where, control was devoid of test compounds, while blank contained no ferrozine. (3d) DPPH Antioxidant activity of the lipophilic EGCG derivatives was ALSO evaluated as DPPH (1,1-diphenyl-2-picrylhydrazyl) radical scavenging capacity using EGCG as the reference. DPPH scavenging capacity of test compounds was determined by EPR (electron paramagnetic resonance) according to Madhujith and Shahidi (16) with slight modifications. […] The spectrum was recorded after 1 min. […]

Experiment [2] in a line: Bulk oil system, stripped corn oil, Rancimat. The note with it: PF=IPsample/IPcontrol; Rancimat 100° C., 1 μmol in 3 g oil. On the procedure:
One milliliter of EGCG and its derivatives dissolved in ethanol (1 μmol/ml) was transferred into a reaction vessel, followed by evaporation of the solvent to dryness under a stream of nitrogen. To each vessel (an empty vessel was used as control) 3 g of stripped corn oil (devoid of endogenous antioxidants) were added. The evaluation was carried out under accelerated oxidation in a Rancimat (Metrohm Model 743, Herisau, Switzerland) conditions at 100° C. with an air flow rate of 20 l/h. Lipid oxidation in the absence and presence of test compounds was monitored by changes in electrical conductivity, arising from the formation of volatile oxidation products. The induction periods (IP, time to reach a sudden increase in oxidation rate) were recorded. […] Antioxidant activity was interpreted as protection factor (PF), which was calculated as follow. PF=IPsample/IPcontrol where, IPsample and IPcontrol represent induction periods for the oil with and without test compounds, respectively. Discussion

Take `CCCCCCCCCCCCCCCCCC(=O)Oc1cc(C(=O)OC2Cc3c(O)cc(O)cc3OC2c2cc(OC(=O)CCCCCCCCCCCCCCCCC)c(O)c(OC(=O)CCCCCCCCCCCCCCCCC)c2)cc(OC(=O)CCCCCCCCCCCCCCCCC)c1O` (centres unmarked) [Compound 1a, EGCG stearate]: the Metal chelation in experiment [1] was determined as 8.33%. Moreover, the “Protection Factor (PF)” value in experiment [2] is on record as 2.38.
The corresponding values for `CCC=CCC=CCC=CCC=CCC=CCCCC(=O)Oc1cc(C(=O)OC2Cc3c(O)cc(O)cc3OC2c2cc(OC(=O)CCCC=CCC=CCC=CCC=CCC=CCC)c(O)c(OC(=O)CCCC=CCC=CCC=CCC=CCC=CCC)c2)cc(OC(=O)CCCC=CCC=CCC=CCC=CCC=CCC)c1O` (centres unmarked) [Compound 1b] are 35.42% and 0.82.
The corresponding values for `CCC=CCC=CCC=CCC=CCC=CCC=CCCC(=O)Oc1cc(C(=O)OC2Cc3c(O)cc(O)cc3OC2c2cc(OC(=O)CCC=CCC=CCC=CCC=CCC=CCC=CCC)c(O)c(OC(=O)CCC=CCC=CCC=CCC=CCC=CCC=CCC)c2)cc(OC(=O)CCC=CCC=CCC=CCC=CCC=CCC=CCC)c1O` (centres unmarked) [Compound 1c] are 28.13% and 0.77.
The corresponding values for `O=C(O[C@@H]1Cc2c(O)cc(O)cc2O[C@@H]1c1cc(O)c(O)c(O)c1)c1cc(O)c(O)c(O)c1` [EGCG, Epigallocatechin gallate, reference compound] are 10.42% and 1.40.
